Data taken from paper PMC5540273, “Progress towards a public chemogenomic set for protein kinases and a call for contributions” (PLoS ONE, 2017).

Experiments:
Experiment in all cases: KINOMEscan competition binding
[1] = molecular target: ADCK3 (Homo sapiens, UniProt Q8NI60); details: read-out: %Inh ADCK3
[2] = molecular target: AMPK-alpha2 (Homo sapiens, UniProt P54646); details: read-out: %Inh AMPK-alpha2
[3] = molecular target: CAMKK1 (Homo sapiens, UniProt Q8N5S9); details: read-out: %Inh CAMKK1
Chain of CAMKK1 (Q8N5S9 whole entry): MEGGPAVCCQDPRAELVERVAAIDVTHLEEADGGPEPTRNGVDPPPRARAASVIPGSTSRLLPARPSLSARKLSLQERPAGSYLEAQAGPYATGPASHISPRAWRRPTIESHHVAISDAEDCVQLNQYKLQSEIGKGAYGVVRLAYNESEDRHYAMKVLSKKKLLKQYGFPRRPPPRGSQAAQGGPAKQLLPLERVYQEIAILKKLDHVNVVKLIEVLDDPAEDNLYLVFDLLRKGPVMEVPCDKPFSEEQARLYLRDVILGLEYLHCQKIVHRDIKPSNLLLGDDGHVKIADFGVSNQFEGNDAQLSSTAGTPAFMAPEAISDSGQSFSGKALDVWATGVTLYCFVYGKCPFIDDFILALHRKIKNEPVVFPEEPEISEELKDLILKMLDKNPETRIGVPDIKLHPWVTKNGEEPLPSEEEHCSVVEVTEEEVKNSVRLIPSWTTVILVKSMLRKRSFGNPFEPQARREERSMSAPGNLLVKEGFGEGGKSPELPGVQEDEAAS

[4] = molecular target: CDC2L5 (Homo sapiens, UniProt Q14004); details: read-out: %Inh CDC2L5
Chain of CDC2L5 (Q14004 whole entry): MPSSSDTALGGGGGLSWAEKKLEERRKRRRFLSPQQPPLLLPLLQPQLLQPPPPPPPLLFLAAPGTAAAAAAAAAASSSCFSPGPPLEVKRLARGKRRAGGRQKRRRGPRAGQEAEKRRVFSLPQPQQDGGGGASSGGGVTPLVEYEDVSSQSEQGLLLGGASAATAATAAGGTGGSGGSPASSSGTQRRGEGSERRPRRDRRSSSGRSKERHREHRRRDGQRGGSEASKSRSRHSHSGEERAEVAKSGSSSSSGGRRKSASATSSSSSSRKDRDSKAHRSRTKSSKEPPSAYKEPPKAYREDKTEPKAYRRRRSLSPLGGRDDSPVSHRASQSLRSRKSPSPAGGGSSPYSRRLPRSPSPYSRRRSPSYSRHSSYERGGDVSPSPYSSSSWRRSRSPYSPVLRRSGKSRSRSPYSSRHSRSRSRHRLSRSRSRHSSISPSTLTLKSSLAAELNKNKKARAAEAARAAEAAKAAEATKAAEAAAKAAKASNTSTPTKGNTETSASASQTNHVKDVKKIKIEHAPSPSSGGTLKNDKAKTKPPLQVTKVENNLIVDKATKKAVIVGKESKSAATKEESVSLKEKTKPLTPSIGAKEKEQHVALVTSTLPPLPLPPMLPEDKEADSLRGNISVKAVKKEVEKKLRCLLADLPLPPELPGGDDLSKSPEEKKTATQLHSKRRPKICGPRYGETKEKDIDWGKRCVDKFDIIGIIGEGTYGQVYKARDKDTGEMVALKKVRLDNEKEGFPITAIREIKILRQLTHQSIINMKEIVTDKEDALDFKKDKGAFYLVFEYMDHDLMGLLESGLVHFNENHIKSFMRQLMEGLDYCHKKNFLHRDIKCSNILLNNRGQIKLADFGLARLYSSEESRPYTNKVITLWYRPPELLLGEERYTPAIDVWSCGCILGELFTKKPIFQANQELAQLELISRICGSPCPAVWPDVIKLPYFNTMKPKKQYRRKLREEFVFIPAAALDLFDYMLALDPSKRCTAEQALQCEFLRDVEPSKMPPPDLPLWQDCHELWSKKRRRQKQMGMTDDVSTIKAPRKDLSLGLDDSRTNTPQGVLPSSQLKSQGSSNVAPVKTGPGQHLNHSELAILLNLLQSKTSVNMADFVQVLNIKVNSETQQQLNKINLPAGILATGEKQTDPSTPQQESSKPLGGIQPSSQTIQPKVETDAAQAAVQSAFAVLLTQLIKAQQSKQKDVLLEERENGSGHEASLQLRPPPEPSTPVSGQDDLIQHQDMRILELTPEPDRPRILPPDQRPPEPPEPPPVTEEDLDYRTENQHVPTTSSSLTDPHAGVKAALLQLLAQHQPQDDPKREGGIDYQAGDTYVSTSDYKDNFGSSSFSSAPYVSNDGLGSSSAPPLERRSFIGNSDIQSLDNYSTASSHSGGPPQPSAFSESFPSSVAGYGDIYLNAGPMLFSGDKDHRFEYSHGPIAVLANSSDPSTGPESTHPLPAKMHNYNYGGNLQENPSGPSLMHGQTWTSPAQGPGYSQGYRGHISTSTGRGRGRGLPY

[5] = molecular target: EPHA4 (Homo sapiens, UniProt P54764); details: read-out: %Inh EPHA4
Chain of EPHA4 (P54764 20-986): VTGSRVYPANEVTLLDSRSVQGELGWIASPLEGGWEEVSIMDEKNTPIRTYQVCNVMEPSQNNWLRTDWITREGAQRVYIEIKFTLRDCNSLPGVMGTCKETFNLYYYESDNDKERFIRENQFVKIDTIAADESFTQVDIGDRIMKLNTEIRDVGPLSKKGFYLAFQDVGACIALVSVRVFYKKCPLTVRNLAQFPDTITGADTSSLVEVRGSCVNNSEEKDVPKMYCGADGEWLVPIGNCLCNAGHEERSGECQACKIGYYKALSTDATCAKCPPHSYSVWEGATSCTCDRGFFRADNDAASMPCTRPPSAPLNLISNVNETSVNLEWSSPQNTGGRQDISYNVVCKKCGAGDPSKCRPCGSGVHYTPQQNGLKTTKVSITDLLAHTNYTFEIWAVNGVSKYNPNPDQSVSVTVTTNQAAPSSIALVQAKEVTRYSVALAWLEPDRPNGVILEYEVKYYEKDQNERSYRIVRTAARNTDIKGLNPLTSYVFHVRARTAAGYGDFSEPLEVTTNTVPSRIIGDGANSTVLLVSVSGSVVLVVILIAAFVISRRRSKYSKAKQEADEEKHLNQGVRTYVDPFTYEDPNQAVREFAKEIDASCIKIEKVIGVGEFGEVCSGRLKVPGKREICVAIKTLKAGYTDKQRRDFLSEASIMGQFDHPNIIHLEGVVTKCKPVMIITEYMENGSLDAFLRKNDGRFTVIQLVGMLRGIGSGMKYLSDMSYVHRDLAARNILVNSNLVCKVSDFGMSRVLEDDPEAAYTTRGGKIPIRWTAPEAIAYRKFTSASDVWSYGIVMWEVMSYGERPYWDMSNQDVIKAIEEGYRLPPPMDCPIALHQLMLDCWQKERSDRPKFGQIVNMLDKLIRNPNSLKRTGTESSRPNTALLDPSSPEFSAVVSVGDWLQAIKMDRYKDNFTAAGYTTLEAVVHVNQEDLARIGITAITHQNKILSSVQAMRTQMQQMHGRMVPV

[6] = molecular target: T1, EPHB3 (Homo sapiens, UniProt P54753); details: read-out: %Inh EPHB3
T1 sequence (P54753 34-998): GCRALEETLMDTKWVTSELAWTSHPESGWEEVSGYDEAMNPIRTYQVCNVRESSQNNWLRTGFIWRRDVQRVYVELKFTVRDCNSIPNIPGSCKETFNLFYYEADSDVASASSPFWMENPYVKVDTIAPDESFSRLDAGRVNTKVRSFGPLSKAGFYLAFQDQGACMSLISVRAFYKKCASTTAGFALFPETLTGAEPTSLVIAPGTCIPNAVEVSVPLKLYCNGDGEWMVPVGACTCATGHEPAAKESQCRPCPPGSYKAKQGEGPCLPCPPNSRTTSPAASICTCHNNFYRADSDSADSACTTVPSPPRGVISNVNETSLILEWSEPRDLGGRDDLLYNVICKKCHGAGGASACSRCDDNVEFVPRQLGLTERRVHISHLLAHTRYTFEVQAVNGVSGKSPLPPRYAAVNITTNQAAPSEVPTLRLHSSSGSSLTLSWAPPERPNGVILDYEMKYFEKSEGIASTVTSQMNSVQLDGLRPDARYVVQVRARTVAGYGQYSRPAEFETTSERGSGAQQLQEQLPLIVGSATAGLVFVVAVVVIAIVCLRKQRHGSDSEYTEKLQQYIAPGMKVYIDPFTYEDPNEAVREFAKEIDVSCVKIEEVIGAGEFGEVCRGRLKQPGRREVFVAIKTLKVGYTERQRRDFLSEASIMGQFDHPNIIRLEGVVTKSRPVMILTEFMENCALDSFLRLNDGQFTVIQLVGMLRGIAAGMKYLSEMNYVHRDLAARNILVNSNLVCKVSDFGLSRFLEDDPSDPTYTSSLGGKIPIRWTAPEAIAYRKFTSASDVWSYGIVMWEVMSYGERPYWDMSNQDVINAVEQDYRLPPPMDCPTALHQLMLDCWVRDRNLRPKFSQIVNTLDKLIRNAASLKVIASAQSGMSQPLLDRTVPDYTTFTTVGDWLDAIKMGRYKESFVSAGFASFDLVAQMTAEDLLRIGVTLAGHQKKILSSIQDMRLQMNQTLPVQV

[7] = molecular target: FGR (Homo sapiens, UniProt P09769); details: read-out: %Inh FGR
Chain of FGR (P09769 whole entry): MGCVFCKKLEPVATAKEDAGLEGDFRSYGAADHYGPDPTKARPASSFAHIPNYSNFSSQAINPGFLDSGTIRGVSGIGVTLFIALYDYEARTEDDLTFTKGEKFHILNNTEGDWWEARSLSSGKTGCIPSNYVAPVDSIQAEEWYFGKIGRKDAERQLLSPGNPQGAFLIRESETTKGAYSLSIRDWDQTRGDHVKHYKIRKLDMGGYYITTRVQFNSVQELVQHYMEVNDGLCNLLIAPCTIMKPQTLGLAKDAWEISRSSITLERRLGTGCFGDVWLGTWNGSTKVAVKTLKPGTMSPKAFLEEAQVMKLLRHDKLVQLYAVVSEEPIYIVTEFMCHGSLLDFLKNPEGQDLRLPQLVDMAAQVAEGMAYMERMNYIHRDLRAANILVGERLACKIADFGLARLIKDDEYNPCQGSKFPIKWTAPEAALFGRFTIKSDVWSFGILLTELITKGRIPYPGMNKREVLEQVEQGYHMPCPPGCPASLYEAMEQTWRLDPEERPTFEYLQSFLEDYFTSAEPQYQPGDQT

[8] = molecular target: HPK1 (Homo sapiens, UniProt Q92918); details: read-out: %Inh HPK1
[9] = molecular target: T2, HUNK (Homo sapiens, UniProt P57058); details: read-out: %Inh HUNK
T2 sequence (P57058 1-714): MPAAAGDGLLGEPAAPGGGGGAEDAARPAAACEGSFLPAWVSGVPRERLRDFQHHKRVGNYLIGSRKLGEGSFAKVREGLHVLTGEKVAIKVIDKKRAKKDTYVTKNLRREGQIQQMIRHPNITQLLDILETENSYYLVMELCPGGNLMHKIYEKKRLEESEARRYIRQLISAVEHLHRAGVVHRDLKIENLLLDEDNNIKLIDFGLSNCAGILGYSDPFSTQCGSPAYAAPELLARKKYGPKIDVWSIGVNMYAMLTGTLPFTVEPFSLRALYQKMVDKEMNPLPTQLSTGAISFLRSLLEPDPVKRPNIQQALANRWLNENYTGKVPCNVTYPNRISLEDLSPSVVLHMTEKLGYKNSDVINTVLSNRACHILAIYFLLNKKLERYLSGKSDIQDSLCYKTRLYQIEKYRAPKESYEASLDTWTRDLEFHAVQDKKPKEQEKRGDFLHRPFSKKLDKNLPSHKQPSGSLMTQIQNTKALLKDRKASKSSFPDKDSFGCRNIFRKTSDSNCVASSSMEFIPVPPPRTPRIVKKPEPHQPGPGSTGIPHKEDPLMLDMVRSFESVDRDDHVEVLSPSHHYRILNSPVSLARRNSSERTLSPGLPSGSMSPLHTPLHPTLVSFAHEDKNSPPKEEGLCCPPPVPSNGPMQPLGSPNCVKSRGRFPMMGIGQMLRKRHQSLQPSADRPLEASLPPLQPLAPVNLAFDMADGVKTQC

Chain of AMPK-alpha2 (P54646 whole entry): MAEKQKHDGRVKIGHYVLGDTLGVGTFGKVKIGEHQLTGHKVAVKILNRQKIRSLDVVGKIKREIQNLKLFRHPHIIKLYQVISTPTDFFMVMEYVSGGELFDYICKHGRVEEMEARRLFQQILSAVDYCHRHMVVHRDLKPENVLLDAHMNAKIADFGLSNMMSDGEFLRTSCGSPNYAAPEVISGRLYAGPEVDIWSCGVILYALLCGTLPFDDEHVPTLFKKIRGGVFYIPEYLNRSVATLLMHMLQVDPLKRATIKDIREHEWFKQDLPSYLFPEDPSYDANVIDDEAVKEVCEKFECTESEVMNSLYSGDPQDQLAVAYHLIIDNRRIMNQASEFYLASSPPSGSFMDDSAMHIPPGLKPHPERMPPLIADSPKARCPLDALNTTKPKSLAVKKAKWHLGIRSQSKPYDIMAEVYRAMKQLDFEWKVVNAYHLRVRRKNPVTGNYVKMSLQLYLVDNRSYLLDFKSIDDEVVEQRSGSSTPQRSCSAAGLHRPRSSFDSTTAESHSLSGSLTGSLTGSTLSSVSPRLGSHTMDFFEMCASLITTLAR
Chain of ADCK3 (Q8NI60 163-647): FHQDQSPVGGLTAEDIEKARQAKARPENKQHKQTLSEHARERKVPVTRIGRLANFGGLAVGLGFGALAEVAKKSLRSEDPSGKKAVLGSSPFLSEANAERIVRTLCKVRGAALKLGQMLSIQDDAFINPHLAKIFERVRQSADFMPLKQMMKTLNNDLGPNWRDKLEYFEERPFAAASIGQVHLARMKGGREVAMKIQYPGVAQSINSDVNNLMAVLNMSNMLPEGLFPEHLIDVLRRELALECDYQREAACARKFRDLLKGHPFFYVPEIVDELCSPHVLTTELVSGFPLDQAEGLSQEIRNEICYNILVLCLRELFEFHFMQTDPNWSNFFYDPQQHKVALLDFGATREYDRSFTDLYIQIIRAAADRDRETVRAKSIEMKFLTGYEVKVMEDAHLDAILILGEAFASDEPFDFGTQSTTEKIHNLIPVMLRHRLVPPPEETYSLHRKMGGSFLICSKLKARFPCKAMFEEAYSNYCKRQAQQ

Structure (SMILES) | inhibition at 1 µM [1] | inhibition at 1 µM [2] | inhibition at 1 µM [3] | inhibition at 1 µM [4] | inhibition at 1 µM [5] | inhibition at 1 µM [6] | inhibition at 1 µM [7] | inhibition at 1 µM [8] | inhibition at 1 µM [9]
CS(=O)(=O)Cc1ccc(Nc2nccc(-c3c(-c4cccc(NC(=O)C5CCCCC5)c4)nn4ncccc34)n2)cc1 [UNC10225159A] | 24% | 2% | 0% | 30% | 14% | 5% | 27% | 14% | 7%
Cn1cc(-c2cnc(N)c3c(-c4ccc5c(c4)CCN5C(=O)Cc4ccccc4)csc23)cn1 [UNC10225012A] | 7% | 0% | 11% | 0% | 11% | 4% | 75% | 94% | 0%
O=c1cc(N2CCOCC2)nc2n(Cc3cccc(Cl)c3Cl)c(C3CC3)nn12 [UNC10225469A] | 11% | 0% | 3% | 0% | 11% | 7% | 9% | 14% | 0%
COc1cccc(OC)c1C(=O)Nc1cccc(-c2nn3ccccc3c2-c2ccnc(Nc3cccc(F)c3)n2)c1 [UNC10225310A] | 0% | 4% | 4% | 1% | 0% | 8% | 23% | 2% | 15%
Cc1ccc(NC(=O)Nc2cccc(C(F)(F)F)c2)cc1 [UNC10225187A] | 5% | 0% | 9% | 0% | 6% | 0% | 0% | 0% | 0%
